The subject of series [1] is HepG2 cells. The series is described as follows: Metabolic stability study in HepG2 cells with RP-LC quantitation. It counts as in vitro ADME, human. Particulars: for metabolic stability (in words) / metabolic conversion to the oxidized form: up to 6 h; for metabolic conversion to the oxidized form: by retention time, 3 to 5, 14 to 15, 4 to UTAS#94. On the procedure:
HepG2 cells were cultured in DMEM culture media in an atmosphere of 95% humidified air and 5% CO2 at 37 °C. Cells were passaged twice a week when reaching approximately 75% confluency. Cell monolayers were washed with PBS once before harvested with 0.5 mL EDTA and 0.5 mL trypsin for 3.5 min and counted using a hemocytometer (Paul Marienfeld GmbH, Lauda-Königshofen, Germany). Cells were routinely grown in 25 cm^2 cell culture flasks (2 μm vent cap, Corning, Victoria, Australia) with 2 × 10^6 cells seeded in 5 mL culture media. After thawing from liquid nitrogen storage, cells were passaged for at least 2–3 weeks to reach steady cumulative growth rates before used for any experiments.
To effectively compare the metabolic stability of our novel SCQs to the reference compound idebenone, a cell culture system had to be developed that would replicate the high metabolic conversion of idebenone in the liver observed in vivo [15, 16, 17]. We therefore employed the hepatic cell line HepG2 to expose the test compounds to hepatic-like enzymatic activities. In addition, the test concentration for SCQs and idebenone had to take into consideration two opposing factors. On the one hand the assay would need to contain sufficient test compound to maximize detection accuracy, on the other hand, the concentration needed to be below the levels that might induce toxicity towards the cultured cells. Based on previous data, no significant cell loss was observed when HepG2 cells were treated with most SCQs at a concentration of 200 μM for 24 h, which led us to select the lower concentration of 40 μM as test concentration. […] We therefore selected the lowest cell concentration (2.5 × 10^5 cells in 2 mL culture media) for this assay.
Log phase HepG2 cells were seeded at 2.5 × 10^5 cells well^−1 in tissue culture-treated 6-well plates (Corning, Victoria, Australia) and allowed to adhere overnight. After one day, the culture media was replaced with fresh culture media (2 mL well^−1) containing the test compounds (12 parallel wells per SCQ). After incubation of cells with test compounds for up to 6 hours, the cell culture media containing the residual SCQs was removed from the six-well plates. Then, 1 mL of cell culture media containing each tested compound was collected at different time points (t = 0, 2 h, 4 h, 6 h). Several methods of sample preparation were tested (e.g., dilution with organic solvents followed by evaporation) and the most suited approach was identified. Each sample (1 mL) was mixed 1:1 with ACN, vortexed for 10 s, and then centrifuged at 2000× g for 10 min at 25 °C. 1 mL of each supernatant was diluted 1:1 in purified water and filtered using 0.45 μm filters prior to immediate analysis by RP-LC. The final concentration of tested compounds for RP-LC analysis was ≤10 μM.
The RP-LC method was developed so that ≤10 μM of each SCQ could be quantified with acceptable repeatability (RSD%) and recovery (%). The mobile phase gradient was adjusted to generate a retention time (RT) of all compounds between 3.00–9.05 min (Table S1). The final conditions included a gradient flow of mobile phase B: 25% (same ACN% in the sample) for 2 min, 25–95% for 3 min, 95% for 4 min, 95–25% for 1 min, and 25% for 5 min (total run t = 15 min, including column post-conditioning). The injection volume (2–20 μL) and detection wavelength (210 nm, 230 nm, 254 nm, 480 nm) were then varied to optimize sensitivity, with 20 μL sample injection volume and detection at 210 nm identified as ideal (Figure S3). Supplementary Table S1 summarizes the analytical figures of merit for the RP-LC of all the compounds. […] The limit of quantification (LOQ) of each compound was established as 1 μM. RSD% (n = 3) at all concentrations (1.0 μM, 2.5 μM, 5.0 μM, 7.5 μM, and 10 μM) were between 0.4–7.6%. […] The above values for analytical figures of merit were considered acceptable for determining metabolic stability of the compounds with concentrations ≤10 μM. […]

Series [2] relates to HepG2 cells. More on the design: method as in PMID 30996858. As to conditions: ref [11], cited from earlier work; for In vitro Cytoprotection (%): HepG2, 10 μM SCQ, rotenone, cell survival relative to untreated cells (27.9 ± 7.9%), mean ± SD.
For series [3], the system named is idebenone metabolism in HepG2 cells. The series is described as follows: Idebenone metabolism in HepG2 cells with or without 5. It counts as in vitro ADME, human. Particulars: HepG2, 6 h. As to the method:
The conversion from the L-phenylalaninol derivative 3 to the L-phenylalanine derivative 5 appeared to reach a plateau at ~10% conversion from t = 2 h and persisted for the entire test period until t = 6 h. […] A concentration series of the unstable reference SCQ idebenone was tested for metabolic stability for 6 h with or without 40 μM 5 (Figure 4). […] Future studies will need to address the type of inhibition and to identify the specific enzyme that is inhibited.
Figure 4 Reduced idebenone metabolism in the presence of the L-phenylalanine derivative 5. Data was expressed as mean ± SEM from three independent experiments, with 4 data points each. Non-linear fits and two-way ANOVA were performed for comparisons between with or without 5 supplemented: *** p < 0.001, * p < 0.033.

Details of series [4]: method as in PMID 19125241. As to conditions: single dose of 150 mg; ref [15]; cited from earlier work.

SMILES strings stand for the structures. Several values for one entry are separate records, joined by “and”; a condition that tells them apart may be missing. Equal entries are not always repeated.

With `CC1=C(CCCC(=O)N[C@H](CO)c2ccccc2)C(=O)c2ccccc2C1=O` [Compound 1], the “metabolic stability (in words)” value in series [1] (HepG2, 40 μM) was “without a significant metabolic conversion”. Moreover, in series [2], the “In vitro Cytoprotection (%)” value was 83.8 ± 19.9%.
On to `CC1=C(CCCC(=O)N[C@@H](CO)c2ccccc2)C(=O)c2ccccc2C1=O` [Compound 2], for which the “metabolic stability (in words)” value in series [1] (HepG2, 40 μM) is “without a significant metabolic conversion”. The “In vitro Cytoprotection (%)” value in series [2] is 87.6 ± 19.7%.
For the molecule `CC1=C(CCCC(=O)N[C@H](CO)Cc2ccccc2)C(=O)c2ccccc2C1=O` [Compound 3], in series [1] (HepG2, 40 μM), the “metabolic stability (in words)” value is on record as “much less stable than its unnatural D-enantiomer 4”. Besides, the “In vitro Cytoprotection (%)” value in series [2] is given as 93.1 ± 13.7%.
As to `CC1=C(CCCC(=O)N[C@@H](CO)Cc2ccccc2)C(=O)c2ccccc2C1=O` [Compound 4], in series [1] (HepG2, 40 μM), the “metabolic stability (in words)” value is reported as “without a significant metabolic conversion” and the “metabolic conversion to the oxidized form” value is recorded as “no conversion was detected”. For the same molecule, the “In vitro Cytoprotection (%)” value in series [2] is on record as 80.0 ± 21.1%.
Turning to `CC1=C(CCCC(=O)N[C@@H](Cc2ccccc2)C(=O)O)C(=O)c2ccccc2C1=O` [Compound 5], the “metabolic stability (in words)” value in series [1] (HepG2, 40 μM) was “without a significant metabolic conversion”. The “stability of 5 in combination with idebenone” value in series [3] (40 μM 5, all concentrations of idebenone) was “stable”. Moreover, the “effect on idebenone metabolism” value in series [3] (40 μM 5, from 20 μM idebenone onward) was “significant reduction of idebenone metabolism”. The “In vitro Cytoprotection (%)” value in series [2] is given as 100.3 ± 17.3%.
Take `CC1=C(CCCCC(=O)N[C@@H](Cc2ccccc2)C(=O)O)C(=O)c2ccccc2C1=O` [Compound 6]: in series [1] (HepG2, 40 μM), the “metabolic stability (in words)” value is “without a significant metabolic conversion”. In addition, in series [2], the “In vitro Cytoprotection (%)” value is given as 90.7 ± 15.6%.
As for `CC1=C(CCCC(=O)NCCc2ccc(O)cc2)C(=O)c2ccccc2C1=O` [Compound 7], in series [1] (HepG2, 40 μM), the “metabolic stability (in words)” value was “less stable”. For the same molecule, in series [2], the “In vitro Cytoprotection (%)” value is 91.7 ± 15.6%.
For the molecule `CC1=C(CCCCC(=O)NCCc2ccc(O)cc2)C(=O)c2ccccc2C1=O` [Compound 8], the “metabolic stability (in words)” value in series [1] (HepG2, 40 μM) is “increased metabolic stability”. Moreover, the “In vitro Cytoprotection (%)” value in series [2] is 91.8 ± 9.8%.
As to `CC1=C(CCCCCC(=O)NCCc2ccc(O)cc2)C(=O)c2ccccc2C1=O` [Compound 9], in series [1] (HepG2, 40 μM), the “metabolic stability (in words)” value was “increased metabolic stability”. For the same molecule, the “In vitro Cytoprotection (%)” value in series [2] is given as 85.2 ± 9.5%.
With `CC1=C(CCCC(=O)N[C@@H](CC(C)C)C(=O)O)C(=O)c2ccccc2C1=O` [Compound 10], the “metabolic stability (in words)” value in series [1] (HepG2, 40 μM) is on record as “without a significant metabolic conversion”. For the same molecule, in series [2], the “In vitro Cytoprotection (%)” value is on record as 98.7 ± 10.9%.
`COc1ccc(CCNC(=O)CCCC2=C(C)C(=O)c3ccccc3C2=O)cc1OC` [Compound 11]: the “In vitro Cytoprotection (%)” value in series [2] is 95.9 ± 19.4%.
`CCCCNC(=O)CCCC1=C(C)C(=O)c2ccccc2C1=O` [Compound 12]: the “In vitro Cytoprotection (%)” value in series [2] is given as 82.0 ± 7.1%.
Regarding `COC(=O)[C@@H](NC(=O)CCCC1=C(C)C(=O)c2ccccc2C1=O)c1ccccc1` [Compound 13], the “In vitro Cytoprotection (%)” value in series [2] was 86.1 ± 5.0%.
Turning to `CC1=C(CCCC(=O)N2CCCC2CO)C(=O)c2ccccc2C1=O` (stereo not drawn) [Compound 14], the “metabolic conversion to the oxidized form” value in series [1] (HepG2, 40 μM) is given as “not detected at all”. The “In vitro Cytoprotection (%)” value in series [2] is 100.7 ± 28.4%.
For the molecule `CC1=C(CCCC(=O)N2CCCC2C(=O)O)C(=O)c2ccccc2C1=O` (stereo not drawn) [Compound 15], the “In vitro Cytoprotection (%)” value in series [2] is 92.7 ± 7.6%.
Turning to `CC1=C(SCCC(=O)O)C(=O)c2ccccc2C1=O` [Compound 16], in series [1] (HepG2, 40 μM), the “metabolic stability (in words)” value is recorded as “significantly reduced metabolic stability”.
Regarding `COC1=C(OC)C(=O)C(CCCCCCCCCCO)=C(C)C1=O` [Idebenone, reference compound], the t1/2 in vivo in series [4] was 3 h and ~ 3 h. The “remaining at t = 6 h” value in series [1] (HepG2 2.5 × 10^5 cells per well, 40 μM, 6 h, normalized to t = 0) is listed as ~ 27.3%. Besides, in series [1] (HepG2, 40 μM, 2 h, three cell densities (2.5 × 10^5 to 1.0 × 10^6 cells in 2 mL)), the “metabolized drug after 2 h” value was ~ 50%. The “metabolized drug after 4 h” value in series [1] (HepG2, 40 μM, 4 h, three cell densities (2.5 × 10^5 to 1.0 × 10^6 cells in 2 mL)) is about 76%. Moreover, the “In vitro Cytoprotection (%)” value in series [2] is listed as 66.2 ± 12.0%.
With `CC1=C(CCCC(=O)N[C@H](Cc2ccccc2)C(=O)O)C(=O)c2ccccc2C1=O` [UTAS#94], in series [2] (selection for the current study), the “cytoprotection (in words)” value was “not cytoprotective enough”.

These data come from paper PMC7169385, “Metabolic Stability of New Mito-Protective Short-Chain Naphthoquinones” (Pharmaceuticals, 2020).
